# Laboratory results from patent publication US20190142840A1, “USE OF SIGMA RECEPTOR LIGANDS IN CANCER” (priority 2016, published 2019).
# Read-outs that look alike come from different tables or passages of the source.
# What was measured:
# [1] = tested on: human breast adenocarcinoma MCF7 European cell line; assay: Proliferation assay (MTT or SRB), MCF7 European cell line; type: cell-based; conditions: for cytotoxic effect of association with paclitaxel: 10 μM sigma-1 receptor antagonist + 10 nM paclitaxel; for IC50: Homo sapiens, read-out: IC50 (concentration of drug that inhibited 50% of cell proliferation)
# Procedure: (§1) The human breast adenocarcinoma MCF7 European cell line, the human lung carcinoma A549 cell line and the B16-F10 murine melanoma cell line were obtained from the University of Granada Scientific Instrumentation Centre (Spain) and the American Type Culture Collection (ATCC). The cells were cultured in Dulbecco's modified Eagle's medium (DMEM) (Sigma, St. Louis, Mo., USA), supplemented with 10% heat-inactivated fetal bovine serum (FBS) (Lonza, Walkersville, Md., USA) and 1% of antibiotics mixture of penicillin (10,000 U/mL) and streptomycin (10 mg/mL) in an humidified 5% CO2 incubator at 37° C. of temperature. […] The percentage of viability was calculated by utilizing cells without any treatment as control. […] In the MTT protocol, 20 μL of MTT solution in cell culture medium (5 mg/mL) was added to each well. […] The optical density (OD) of converted dye, which is proportional to the number of viable cells, was measured at 570 nm using a Titertek multiscan colorimeter (Flow Laboratories, Irvine, USA). The percentage of surviving cells was calculated as the OD ratio of treated cells to control (untreated) cells (×100). In the SRB protocol, the cells were washed three times with PBS, and 300 μL of 10% trichloroacetic acid was used to fix the cells (20 minutes at 4° C.). Then, the cells were washed three times with distilled water and left to dry before 300 μL of SRB was added. Incubation under mechanical stirring was continued for 20 minutes, and the excess SRB was removed by the addition of a 1% acetic acid solution. Then, the cells were left to dry. […] Sigma-Aldrich) was used for dye resuspension. The optical density (OD) of SRB was measured at 492 nm (Titertek® Multiskan colorimeter; Flow Laboratories Ltd, Oldham, UK) and analyzed with Ascent software version 2.6 (ThermoLab systems, Helsinki, Finland). In all cases, the percentage of surviving cells was calculated as: [OD treated cells/OD control (untreated) cells)]×100. The IC50 values (concentration of drug that inhibited 50% of cell proliferation) were estimated from the inhibition curves.
# [2] = tested on: B16-F10 murine melanoma cell line; assay: Proliferation assay (MTT or SRB), B16-F10 cell line; type: cell-based; conditions: for cytotoxic effect of association with paclitaxel: 10 μM sigma-1 receptor antagonist + 10 nM paclitaxel; for IC50: Mus musculus, read-out: IC50 (concentration of drug that inhibited 50% of cell proliferation)
# Procedure: as §1
# [3] = tested on: patients treated for colorectal cancer; assay: Phase 2 placebo-controlled clinical trial of Example 1 with oxaliplatin (FOLFOX4/mFOLFOX6); type: in vivo, human
# Procedure: Thus, the clinical study titled “A proof-concept phase 2, randomized, placebo-controlled, double blind, multicenter clinical trial in two parallel groups to evaluate the efficacy of Example 1 for reducing the incidence and severity of oxaliplatin-induced peripheral neuropathy in patients treated for colorectal cancer” was performed.
# The study period was 24 weeks of chemotherapy (one chemo cycle every 2 weeks=12 chemo cycles) plus 6 weeks (follow-up) and having as relevant safety objective to explore the incidence of adverse events by severity, of serious adverse effects, of adverse events leading to Example 1 discontinuation and of adverse events related to Example 1.
# Patients received either: • oral daily Example 1, 400 mg/day, during the first 5 days of every chemotherapy cycle, starting the day before the cycle, up to a maximum of 12 cycles (Arm 1), • or oral daily placebo during the first 5 days of every chemotherapy cycle, starting the day before the cycle, up to a maximum of 12 cycles (Arm 2).
# Patients were randomized to one of the two above mentioned Arms.
# It was expected that chemotherapy cycles were repeated every 14 days for a maximum of 6 months (12 cycles) in the absence of disease progression or unacceptable toxicity.
# [4] = tested on: human lung carcinoma A549 cell line; assay: Proliferation assay (MTT or SRB), A549 cell line; type: cell-based; conditions: read-out: IC50 (concentration of drug that inhibited 50% of cell proliferation)
# Procedure: The cells were cultured in Dulbecco's modified Eagle's medium (DMEM) (Sigma, St. Louis, Mo., USA), supplemented with 10% heat-inactivated fetal bovine serum (FBS) (Lonza, Walkersville, Md., USA) and 1% of antibiotics mixture of penicillin (10,000 U/mL) and streptomycin (10 mg/mL) in an humidified 5% CO2 incubator at 37° C. of temperature. Cultured cells were detached with a trypsin-ethylenediamine tetraacetic acid (EDTA) solution (0.25%) and seeded into 24-well plates at a density of 6-15×10^3 cells per well, depending on the cell line.
# After incubation for 24 hours under culture conditions, the cells were treated with either paclitaxel (0.1-50 nM) or Example 1 (5-100 μM). […] The percentage of viability was calculated by utilizing cells without any treatment as control.
# After an incubation time of 96 hours with drugs, the cytotoxicity of the treatments toward the cell lines was evaluated in triplícate by the 3-(4,5-dimethylthiazol-2-yl)-2,5-diphenyl tetrazolium bromide (MTT) proliferation assay, as previously described (Clares et al., 2013), or with a sulforhodamine B (SRB) protocol, as previously described (Melguizo et al., 2015). […] The optical density (OD) of converted dye, which is proportional to the number of viable cells, was measured at 570 nm using a Titertek multiscan colorimeter (Flow Laboratories, Irvine, USA). […]
# [5] = target: sigma (σ-2) site (Homo sapiens, UniProt Q5BJF2); conditions: background statement; cited from earlier work
# sigma (σ-2) site, sequence (Q5BJF2 whole entry): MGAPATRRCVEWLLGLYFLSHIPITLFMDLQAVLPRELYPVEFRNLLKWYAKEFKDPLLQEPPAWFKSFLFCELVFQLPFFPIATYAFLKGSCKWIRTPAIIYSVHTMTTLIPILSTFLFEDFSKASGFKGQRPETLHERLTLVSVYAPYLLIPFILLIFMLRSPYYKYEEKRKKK
# [6] = target: sigma 1 (σ-1) site (Homo sapiens, UniProt Q99720); conditions: background statement; cited from earlier work
# sigma 1 (σ-1) site, sequence (Q99720 whole entry): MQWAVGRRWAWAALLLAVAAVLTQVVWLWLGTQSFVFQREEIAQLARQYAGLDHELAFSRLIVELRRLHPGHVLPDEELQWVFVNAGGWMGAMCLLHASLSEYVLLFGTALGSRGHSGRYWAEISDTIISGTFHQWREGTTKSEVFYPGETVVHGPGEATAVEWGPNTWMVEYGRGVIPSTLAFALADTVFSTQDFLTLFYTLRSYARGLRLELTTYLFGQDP
# [7] = Example 1 400 mg/day oral with oxaliplatin, % apparently of the 27 discontinuations
# [8] = Example 1 400 mg/day oral with oxaliplatin, % of n = 62 randomized
# [9] = Example 1 400 mg/day oral with oxaliplatin, number of subjects
# [10] = patients treated with Example 1 versus placebo
compound,measurement,setting,value
"Cc1cc(OCCN2CCOCC2)nn1-c1ccc2ccccc2c1 [Example 1, 4-{2-[5-Methyl-1-(naphthalen-2-yl)-1H-pyrazol-3-yloxy]ethyl}morpholine]",cytotoxic effect of association with paclitaxel,[1]; MCF7 European cell culture,better results than Haloperidol and BD-1063
same,cytotoxic effect of association with paclitaxel,"[1]; MCF7 European cell culture, listed as Example-1",greater than summative
same,IC50,"[1]; MCF7, 96 h",83 µM
same,cytotoxic effect of association with paclitaxel,[2]; B16-F10 cell culture,better results than Haloperidol and BD-1063
same,cytotoxic effect of association with paclitaxel,"[2]; B16-F10 cell culture, listed as Example-1",greater than summative
same,IC50,"[2]; B16-F10, 96 h",27 µM
same,Discontinuations: Physician decision (%),[3]; [7],11.1%
same,Discontinuations: Progressive Disease (%),[3]; [7],7.4%
same,Number of Completers (%),[3]; [8],56.5%
same,Number of discontinuations (%),[3]; [8],43.5%
same,Number of discontinuations,"[3]; Example 1 400 mg/day oral with oxaliplatin, n = 62, number of subjects",27
same,Discontinuations: Physician decision,[3]; [9],3
same,Discontinuations: Progressive Disease,[3]; [9],2
same,Number of Completers,"[3]; Example 1 400 mg/day oral, first 5 days of each cycle, with oxaliplatin, n = 62 randomized, number of subjects",35
same,more patients completed the 12 cycles of Oxaliplatin therapy,[3]; Example 1 added to chemotherapy versus placebo,14.6%
same,Oxaliplatin dosing attained,[3]; [10],higher Oxaliplatin dosing
same,patients discontinued because of cancer progression or physician decision,[3]; [10],Less patients
same,tolerability of the chemotherapy,[3]; [10],tolerated better the chemotherapy
same,IC50,"[4]; A549, 96 h",100 µM
"CC(=O)O[C@H]1C(=O)[C@@]2(C)[C@H]([C@H](OC(=O)c3ccccc3)[C@]3(O)C[C@H](OC(=O)[C@H](O)[C@@H](NC(=O)c4ccccc4)c4ccccc4)C(C)=C1C3(C)C)[C@]1(OC(C)=O)CO[C@@H]1C[C@@H]2O [Paclitaxel, reference compound]",IC50,"[1]; MCF7 European cells, 96 hours incubation",0.0085 µM
same,cytotoxicity,"[1]; paclitaxel alone at 10 nM, MCF7 European cell culture",around 35%
same,IC50,"[2]; B16-F10 cells, 96 hours incubation",0.015 µM
same,cytotoxicity,"[2]; paclitaxel alone at 10 nM, B16-F10 cell culture",around 35%
same,IC50,"[4]; A549, A-549 cells, 96 hours incubation",0.003 µM
"O=C(CCCN1CCC(O)(c2ccc(Cl)cc2)CC1)c1ccc(F)cc1 [haloperidol, reference compound]",cytotoxic effect of association with paclitaxel,[1]; MCF7 European cell culture,greater than summative
same,cytotoxic effect of association with paclitaxel,[2]; B16-F10 cell culture,greater than summative
SKF 10047,affinity for the sigma (σ-2) site,[5],micromolar affinity
same,affinity for the sigma 1 (σ-1) site,[6],nanomolar affinity
